From PubChem BioAssay AID256 (DTP/NCI, 2004) come the findings set out here.

This test relates to CD2F1 mice, L1210 leukemia ip, survival T/C. As to the kind of experiment: NCI In Vivo Anticancer Drug Screen. Data for tumor model L1210 Leukemia (intraperitoneal) in CD2F1 (CDF1) mice. Particulars: higher = longer survival. The procedure, abridged: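 In this screen, transplantable tumors were grown in mice given either the compound or its vehicle. Results were expressed as the treated measurement relative to the control measurement.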

Setting [1] is: endpoint: mean survival time, dose: 50.0 mg/kg/injection, schedule: Q01DX009 (ip), vehicle: saline with Tween-80.
Where [2] appears, read: endpoint: mean survival time, dose: 100.0 mg/kg/injection, schedule: Q01DX009 (ip), vehicle: saline with Tween-80.
Where [3] appears, read: endpoint: mean survival time, dose: 200.0 mg/kg/injection, schedule: Q01DX009 (ip), vehicle: saline with Tween-80.
Where [4] appears, read: endpoint: mean survival time, dose: 100.0 mg/kg/injection, schedule: Q04DX003 (ip), vehicle: saline with Tween-80.
Setting [5] is: endpoint: mean survival time, dose: 100.0 mg/kg/injection, schedule: Q01DX009 (ip), vehicle: saline.
Where [6] appears, read: endpoint: mean survival time, dose: 200.0 mg/kg/injection, schedule: Q01DX009 (ip), vehicle: saline.
[7] abbreviates: endpoint: mean survival time, dose: 100.0 mg/kg/injection, schedule: Q04DX002 (ip), vehicle: saline with Tween-80.
Setting [8] is: endpoint: mean survival time, dose: 200.0 mg/kg/injection, schedule: Q04DX002 (ip), vehicle: saline with Tween-80.
The mark [9] stands for this setting: endpoint: mean survival time, dose: 400.0 mg/kg/injection, schedule: Q04DX002 (ip), vehicle: saline with Tween-80.
The mark [10] stands for this setting: endpoint: mean survival time, dose: 25.0 mg/kg/injection, schedule: Q01DX009 (ip), vehicle: saline with Tween-80.
[11] abbreviates: endpoint: mean survival time, dose: 200.0 mg/kg/injection, schedule: Q04DX003 (ip), vehicle: saline with Tween-80.
Where [12] appears, read: endpoint: mean survival time, dose: 100.0 mg/kg/injection, schedule: Q01DX001 (ip), vehicle: saline with Tween-80.
Where [13] appears, read: endpoint: mean survival time, dose: 200.0 mg/kg/injection, schedule: Q01DX001 (ip), vehicle: saline with Tween-80.
Setting [14] is: endpoint: mean survival time, dose: 400.0 mg/kg/injection, schedule: Q01DX001 (ip), vehicle: saline with Tween-80.

“And” between values parts separate entries of the source, which are not always exact repeats. Equal values may be shown once. Inconclusive results and toxic doses are left out.

On to `C=C(c1ccc(OC)c(OC)c1)c1nccc2cc(OC)c(OC)cc12`, for which the T/C by setting is: (endpoint: median survival time, dose: 50.0 mg/kg/injection, schedule: Q01DX009 (ip), vehicle: Klucel (hydroxypropylcellulose) (HPC)) 101 % of control; (endpoint: median survival time, dose: 100.0 mg/kg/injection, schedule: Q01DX009 (ip), vehicle: Klucel (hydroxypropylcellulose) (HPC)) 89 % of control; (endpoint: median survival time, dose: 200.0 mg/kg/injection, schedule: Q01DX009 (ip), vehicle: Klucel (hydroxypropylcellulose) (HPC)) 95 % of control; (endpoint: median survival time, dose: 400.0 mg/kg/injection, schedule: Q01DX009 (ip), vehicle: Klucel (hydroxypropylcellulose) (HPC)) 97 % of control; (endpoint: median survival time, dose: 800.0 mg/kg/injection, schedule: Q01DX009 (ip), vehicle: Klucel (hydroxypropylcellulose) (HPC)) 108 % of control.

With `CC1CCC2N(C1)CC1C(C(O)C(O)C3(O)C1CC14OC5(O)C(O)CCC1(C)C5CC(O)C34)C2(C)O` (centres undefined), the T/C was 105 % of control under setting [1], 116 % of control under setting [2] and 105 % of control under setting [3].

For `NCCCCS(=O)(=O)Nc1ccc(Nc2c3ccccc3nc3cc([N+](=O)[O-])ccc23)cc1`, the T/C under setting [1] is 158 % of control; the T/C under setting [2] is 172 % of control; the T/C under setting [4] is 157 % of control; the T/C (endpoint: mean survival time, dose: 300.0 mg/kg/injection, schedule: Q04DX003 (ip), vehicle: saline with Tween-80) was 159 % of control; the T/C (endpoint: mean survival time, dose: 400.0 mg/kg/injection, schedule: Q04DX003 (ip), vehicle: saline) was 151 % of control.

`NC(=O)Nc1ccccc1`: the T/C reads like this: under setting [5], 98 % of control; under setting [6], 98 % of control; (endpoint: mean survival time, dose: 400.0 mg/kg/injection, schedule: Q01DX009 (ip), vehicle: saline) 101 % of control.

For `Cc1cc(C)c(NC(=O)/C=C/c2ccccc2)c(C)c1`, the T/C is 96 % of control under setting [7], 89 % of control under setting [8] and 96 % of control under setting [9].

Take `Cc1cccc(C)c1C1=NCCN1`: the T/C was 98 % of control (endpoint: mean survival time, dose: 12.5 mg/kg/injection, schedule: Q01DX009 (ip), vehicle: saline with Tween-80); 98 % of control under setting [10]; 98 % of control under setting [1].

As for `COC(=N)C/C=C/CC(=N)OC`, the T/C by setting is: under setting [4], 98 % of control; under setting [11], 95 % of control; (endpoint: mean survival time, dose: 400.0 mg/kg/injection, schedule: Q04DX003 (ip), vehicle: saline with Tween-80) 98 % of control.

Regarding `CC(N)c1ccccc1` (centres undefined), the T/C is 98 % of control (endpoint: mean survival time, dose: 37.5 mg/kg/injection, schedule: Q04DX003 (ip), vehicle: saline); 96 % of control (endpoint: mean survival time, dose: 75.0 mg/kg/injection, schedule: Q01DX001 (ip), vehicle: saline); 100 % of control (endpoint: mean survival time, dose: 75.0 mg/kg/injection, schedule: Q04DX003 (ip), vehicle: saline); 100 % of control (endpoint: mean survival time, dose: 150.0 mg/kg/injection, schedule: Q01DX001 (ip), vehicle: saline); 100 % of control (endpoint: mean survival time, dose: 150.0 mg/kg/injection, schedule: Q04DX003 (ip), vehicle: saline); 106 % of control (endpoint: mean survival time, dose: 300.0 mg/kg/injection, schedule: Q01DX001 (ip), vehicle: saline).

With `C[CH2][Sn]1([CH2]C)[O]C2C(CO)OC(n3cnc4c(=O)[nH]c(N)nc43)C2[O]1` (centres undefined), the T/C is, setting by setting: (endpoint: mean survival time, dose: 0.78 mg/kg/injection, schedule: Q01DX005 (ip), vehicle: other) 100 % of control; (endpoint: mean survival time, dose: 1.56 mg/kg/injection, schedule: Q01DX005 (ip), vehicle: other) 100 % of control; (endpoint: mean survival time, dose: 3.13 mg/kg/injection, schedule: Q01DX005 (ip), vehicle: other) 104 % of control; (endpoint: mean survival time, dose: 6.25 mg/kg/injection, schedule: Q01DX005 (ip), vehicle: other) 102 % of control; (endpoint: mean survival time, dose: 12.5 mg/kg/injection, schedule: Q01DX005 (ip), vehicle: other) 96 % of control and 110 % of control.

Turning to `O=C1C=CC(=O)N1c1cc(Cl)ccc1Cl`, the T/C was 93 % of control under setting [4] and 93 % of control under setting [11].

In the case of `CSc1sc2ccccc2[n+]1C`, the T/C runs as follows: (endpoint: mean survival time, dose: 25.0 mg/kg/injection, schedule: Q01DX009 (ip), vehicle: saline) 100 % of control; (endpoint: mean survival time, dose: 50.0 mg/kg/injection, schedule: Q01DX009 (ip), vehicle: saline) 110 % of control.

As for `Cc1ccc(S(=O)(=O)Nc2ccc([N+](=O)[O-])cc2O)cc1`, the T/C (endpoint: mean survival time, dose: 100.0 mg/kg/injection, schedule: Q04DX003 (ip), vehicle: Klucel (hydroxypropylcellulose) (HPC)) is 94 % of control; the T/C (endpoint: mean survival time, dose: 200.0 mg/kg/injection, schedule: Q04DX003 (ip), vehicle: Klucel (hydroxypropylcellulose) (HPC)) was 94 % of control; the T/C (endpoint: mean survival time, dose: 400.0 mg/kg/injection, schedule: Q04DX003 (ip), vehicle: Klucel (hydroxypropylcellulose) (HPC)) was 94 % of control.

Consider `S=c1nc[nH]c2ccccc12`, for which the T/C runs as follows: under setting [12], 93 % of control; under setting [7], 91 % of control and 105 % of control; under setting [4], 95 % of control and 97 % of control; under setting [13], 94 % of control; under setting [8], 94 % of control and 102 % of control; under setting [11], 86 % of control and 90 % of control. Also, the T/C under setting [14] was 88 % of control; the T/C under setting [9] is 91 % of control and 98 % of control.

Take `CCOC(OCC)n1ncnc1NC(=S)NCc1ccccc1`: the T/C was 100 % of control (endpoint: mean survival time, dose: 12.5 mg/kg/injection, schedule: Q01DX001 (ip), vehicle: carboxymethylcellulose (CMC)); 95 % of control (endpoint: mean survival time, dose: 25.0 mg/kg/injection, schedule: Q01DX001 (ip), vehicle: carboxymethylcellulose (CMC)); 93 % of control (endpoint: mean survival time, dose: 50.0 mg/kg/injection, schedule: Q01DX001 (ip), vehicle: carboxymethylcellulose (CMC)); 108 % of control (endpoint: mean survival time, dose: 100.0 mg/kg/injection, schedule: Q01DX001 (ip), vehicle: carboxymethylcellulose (CMC)); 91 % of control (endpoint: mean survival time, dose: 200.0 mg/kg/injection, schedule: Q01DX001 (ip), vehicle: carboxymethylcellulose (CMC)).

Take `CN(C)c1ccc(/C=C/c2cc[n+](C)cc2)cc1`: the T/C is 97 % of control (endpoint: mean survival time, dose: 4.0 mg/kg/injection, schedule: Q01DX009 (ip), vehicle: saline) and 94 % of control (endpoint: mean survival time, dose: 8.0 mg/kg/injection, schedule: Q01DX009 (ip), vehicle: saline).

In the case of `CC(=O)SCCCCl`, the T/C was 97 % of control under setting [5] and 101 % of control under setting [6].

Regarding `O=C(/C(=C\c1ccccc1)N1CCOCC1)c1ccc(Cl)cc1`, the T/C was 95 % of control under setting [10], 97 % of control under setting [1] and 86 % of control under setting [2].

For `COc1ccc(/C=C/c2ccccc2)cc1`, the T/C under setting [12] is 95 % of control, the T/C under setting [13] is 88 % of control and the T/C under setting [14] is 86 % of control.

Turning to `NC(=O)c1ncn(C2OC3COP(=O)(O)OC3C2O)c1N` (centres undefined), the T/C was 98 % of control (endpoint: median survival time, dose: 44.6 mg/kg/injection, schedule: Q01DX005 (ip), vehicle: saline); 101 % of control (endpoint: median survival time, dose: 89.2 mg/kg/injection, schedule: Q01DX005 (ip), vehicle: saline); 93 % of control (endpoint: median survival time, dose: 178.5 mg/kg/injection, schedule: Q01DX005 (ip), vehicle: saline).

`OCC1OC(c2ccccc2)OC(CO)C(O)C1O` (centres undefined): the T/C was 96 % of control under setting [1], 98 % of control under setting [2] and 94 % of control under setting [3].

Take `c1csc(C[N+]23CN4CN(CN(C4)C2)C3)c1`: the T/C by setting is: (endpoint: median survival time, dose: 12.5 mg/kg/injection, schedule: Q01DX009 (ip), vehicle: saline) 103 % of control; (endpoint: median survival time, dose: 25.0 mg/kg/injection, schedule: Q01DX009 (ip), vehicle: saline) 107 % of control; (endpoint: median survival time, dose: 50.0 mg/kg/injection, schedule: Q01DX009 (ip), vehicle: saline) 107 % of control; (endpoint: median survival time, dose: 100.0 mg/kg/injection, schedule: Q01DX009 (ip), vehicle: saline) 108 % of control; (endpoint: median survival time, dose: 200.0 mg/kg/injection, schedule: Q01DX009 (ip), vehicle: saline) 101 % of control; (endpoint: median survival time, dose: 400.0 mg/kg/injection, schedule: Q01DX009 (ip), vehicle: saline) 109 % of control.

As to `NC(=O)c1c[nH]n(C2OC(CO)C(O)C2O)c1=O` (centres undefined), the T/C was 100 % of control (endpoint: median survival time, dose: 49.9 mg/kg/injection, schedule: Q01DX005 (ip), vehicle: saline); 94 % of control (endpoint: median survival time, dose: 99.8 mg/kg/injection, schedule: Q01DX005 (ip), vehicle: saline); 94 % of control (endpoint: median survival time, dose: 199.6 mg/kg/injection, schedule: Q01DX005 (ip), vehicle: saline).

Take `O=C(Cc1ccccc1)c1ccccc1`: the T/C reads like this: under setting [12], 102 % of control; under setting [13], 102 % of control; under setting [14], 94 % of control.
